Data taken from patent publication US7393812B2, “Methylidene mevalonates and their use as herbicides” (Dow AgroSciences LLC, priority 2004, dated 2008).

Key:
Format in all cases: in vivo
Conditions in all cases: 16 days after treatment
[1] = system: barnyardgrass (Echinochloa crusgalli, ECHCG); experiment: General herbicidal evaluation, preemergence
Text: (§1) Applications of methylidene mevalonate were made either to the foliage (postemergence) or soil (preemergence). Seeds of sunflower (Helianthus annus, HELAN), morningglory (Ipomoea hederacea, IPOHE) velvetleaf (Abutilon theophrasti, ABUTH), pigweed (Amaranthus spp., AMARE), barnyardgrass (Echinochloa crusgalli, ECHCG), giant foxtail (Setaria faberi, SETFA), wild oats (Avena fatua, AVEFA), and blackgrass (Alopecurus myosuroides, ALOMY) were planted in mineral soil (sandy clay loam, 51% sand, 26% silt, 23% clay, 2.8% O.M., pH 7.8) and Metro-mix (Bulk Sak, Inc., Malvern, Ark., USA) for preemergence and postemergence treatments, respectively. Pots receiving preemergence treatments were watered immediately following application. Prior to postemergence treatment, plants were grown in the greenhouse (16 h photoperiod, 27 C) and thinned to a density of 2 to 15 plants pot^−1, depending on species. At the time of postemergence applications, plants were 8-12 days old, 3 to 10 cm in height, and in the 1- to 3-true-leaf stage. Natural light in the greenhouse was supplemented with metal halide lights that provided an average photosynthetic photon flux of 500 μmol m^−2s^−1.
(§2) A sample of sodium methylidene mevalonate was dissolved in 4 mL of distilled water followed by 10 mL of formulation stock “B” (200 mL isopropanol, 20 mL crop oil concentrate, 0.4 g Triton X-155 [Sigma Chemical Co., St. Louis, Mo. 62718], and 78 mL water). This was followed by three 1:1 (v/v) serial dilutions using formulation stock “C” (100 mL isopropanol, 10 mL crop oil concentrate, 0.2 g Triton X-155, 390 mL water, 485 mL acetone and 15 mL DMSO).
(§3) Treatments were made at four different doses (4000, 2000, 1000, and 500 g ha^−1). For preemergence treatments, 1.75 mL of spray solution were applied to the soil surface in each pot using a glass Cornwall syringe fitted with a Teejet SS8001E flat-fan nozzle (Spraying Systems Co., Wheaton, Ill. 60189-7900). For postemergence applications, the foliage of the test plants was sprayed using a DeVilbiss atomizer (DeVilbiss Health Car, Inc., Somerset, Pa. 15501) driven by compressed air at a pressure of 22 kPa. Untreated controls were included.
(§4) Pots were placed in the greenhouse following compound application. Pots from postemergence and preemergence were sub-irrigated and top-watered, respectively, as needed for the duration of the test. Visual injury ratings were taken 9 and 16 days after treatment for postemergence and preemergence applications, respectively, on a 0 to 100 scale where 0 represents no injury and 100 represents complete necrosis.

[2] = system: pigweed (Amaranthus spp., AMARE); experiment: General herbicidal evaluation, preemergence
Text: as §1, §2, §3, §4

[3] = system: blackgrass (Alopecurus myosuroides, ALOMY); experiment: General herbicidal evaluation, preemergence
Text: as §1, §2, §3, §4

[4] = system: giant foxtail (Setaria faberi, SETFA); experiment: General herbicidal evaluation, preemergence
Text: as §1, §2, §3, §4

[5] = system: wild oats (Avena fatua, AVEFA); experiment: General herbicidal evaluation, preemergence
Text: as §1, §2, §3, §4

[6] = system: morningglory (Ipomoea hederacea, IPOHE); experiment: General herbicidal evaluation, preemergence
Text: as §1, §2, §3, §4

[7] = system: sunflower (Helianthus annus, HELAN); experiment: General herbicidal evaluation, preemergence
Text: as §1, §2, §3, §4

[8] = system: barnyardgrass (Echinochloa crusgalli, ECHCG); experiment: General herbicidal evaluation, postemergence
Text: as §1, §2, §3
(§5) Pots were placed in the greenhouse following compound application. Pots from postemergence and preemergence were sub-irrigated and top-watered, respectively, as needed for the duration of the test. […]

[9] = system: pigweed (Amaranthus spp., AMARE); experiment: General herbicidal evaluation, postemergence
Text: as §1, §2, §3, §5

[10] = system: blackgrass (Alopecurus myosuroides, ALOMY); experiment: General herbicidal evaluation, postemergence
Text: as §1, §2, §3, §5

[11] = system: giant foxtail (Setaria faberi, SETFA); experiment: General herbicidal evaluation, postemergence
Text: as §1, §2, §3, §5

[12] = system: wild oats (Avena fatua, AVEFA); experiment: General herbicidal evaluation, postemergence
Text: as §1, §2, §3, §5

[13] = system: morningglory (Ipomoea hederacea, IPOHE); experiment: General herbicidal evaluation, postemergence
Text: as §1, §2, §3, §5

[14] = system: sunflower (Helianthus annus, HELAN); experiment: General herbicidal evaluation, postemergence
Text: as §1, §2, §3, §5

[15] = system: velvetleaf (Abutilon theophrasti, ABUTH); experiment: General herbicidal evaluation, postemergence
Text: as §1, §2, §3, §5

Measured: Visual Injury (%)

C=C(CO)C(C)(O)CC(=O)O (stereo not drawn) [methylidene mevalonate, 3-hydroxy-4-(hydroxymethyl)-3-methylpent-4-enoic acid]
30%: [1]; 4.0 kg ha^−1, ECHCG | [2]; 2.0 kg ha^−1, AMARE | [3]; 4.0 kg ha^−1, ALOMY | [4]; 4.0 kg ha^−1, SETFA | [7]; 1.0 kg ha^−1, HELAN | [7]; 2.0 kg ha^−1, HELAN | [9]; 0.5 kg ha^−1, AMARE | [10]; 0.5 kg ha^−1, ALOMY | [10]; 1.0 kg ha^−1, ALOMY | [14]; 0.5 kg ha^−1, HELAN
90%: [8]; 4.0 kg ha^−1, ECHCG
0%: [1]; 0.5 kg ha^−1, ECHCG | [1]; 1.0 kg ha^−1, ECHCG | [2]; 0.5 kg ha^−1, AMARE | [2]; 1.0 kg ha^−1, AMARE | [3]; 0.5 kg ha^−1, ALOMY | [3]; 1.0 kg ha^−1, ALOMY | [4]; 0.5 kg ha^−1, SETFA | [4]; 1.0 kg ha^−1, SETFA | [5]; 0.5 kg ha^−1, AVEFA | [5]; 1.0 kg ha^−1, AVEFA | [5]; 2.0 kg ha^−1, AVEFA | [6]; 0.5 kg ha^−1, IPOHE | [6]; 1.0 kg ha^−1, IPOHE | [6]; 2.0 kg ha^−1, IPOHE
70%: [8]; 1.0 kg ha^−1, ECHCG | [8]; 2.0 kg ha^−1, ECHCG | [11]; 4.0 kg ha^−1, SETFA | [14]; 4.0 kg ha^−1, HELAN
75%: [13]; 4.0 kg ha^−1, IPOHE
50%: [9]; 1.0 kg ha^−1, AMARE | [9]; 4.0 kg ha^−1, AMARE | [11]; 1.0 kg ha^−1, SETFA | [11]; 2.0 kg ha^−1, SETFA
60%: [7]; 4.0 kg ha^−1, HELAN | [8]; 0.5 kg ha^−1, ECHCG | [10]; 2.0 kg ha^−1, ALOMY | [10]; 4.0 kg ha^−1, ALOMY | [12]; 1.0 kg ha^−1, AVEFA | [12]; 2.0 kg ha^−1, AVEFA | [13]; 0.5 kg ha^−1, IPOHE | [13]; 1.0 kg ha^−1, IPOHE | [14]; 2.0 kg ha^−1, HELAN | [15]; 1.0 kg ha^−1, ABUTH | [15]; 2.0 kg ha^−1, ABUTH
85%: [12]; 4.0 kg ha^−1, AVEFA
40%: [2]; 4.0 kg ha^−1, AMARE | [9]; 2.0 kg ha^−1, AMARE | [11]; 0.5 kg ha^−1, SETFA | [12]; 0.5 kg ha^−1, AVEFA | [14]; 1.0 kg ha^−1, HELAN | [15]; 0.5 kg ha^−1, ABUTH
10%: [5]; 4.0 kg ha^−1, AVEFA
65%: [13]; 2.0 kg ha^−1, IPOHE | [15]; 4.0 kg ha^−1, ABUTH
20%: [1]; 2.0 kg ha^−1, ECHCG | [3]; 2.0 kg ha^−1, ALOMY | [4]; 2.0 kg ha^−1, SETFA | [6]; 4.0 kg ha^−1, IPOHE | [7]; 0.5 kg ha^−1, HELAN
